{
  "source": "patent US11459445B2",
  "about": "“Composition and molded body” (SUMITOMO CHEMICAL COMPANY, LIMITED, priority 2018, dated 2022)",
  "origin": "cited, not measured here",
  "tested_on": "C. violaceum CV026",
  "settings": "N-hexanoyl homoserine lactone added; compared with no caffeine; Sensors 2013, 13, 5117-5129",
  "data": [
    {"smiles": "Cn1c(=O)c2c(ncn2C)n(C)c1=O", "note": "[caffeine]", "values": [
      {"measurement": "amount of violet pigment (violacein) produced", "value": "smaller"}
    ]}
  ]
}
